{"source": "patent US12011475B2", "about": "“Polypeptide, polypeptide fragment, derivative thereof, and applications thereof” (CHENGDU HUITAI BIOMEDICINE CO., LTD., priority 2017, dated 2024)", "assay_type_in_all_cases": "in vivo", "key": {"[1]": {"tested_on": "rat with pulmonary fibrosis induced by bleomycin", "assay": "Masson staining score, intratracheal instillation (Example 19)", "details": "fibrosis pathology score, grade 0 to 8, 8 mg/kg peptide + 4 mg/kg bleomycin, Mean ± SEM", "from_the_text": "The lung tissue of the rats of Example 9 was taken, fixed with 4% paraformaldehyde and embedded in paraffin. The wax block embedded the lung tissue was sectioned along the largest cross section. Pathological changes in lung tissue were observed using staining by Masson's trichrome stain (Masson). Pathological changes in lung tissue were observed under a light microscope (low magnification) at a magnification of 100 times (the result is shown in FIG. 15).\nAccording to the Modified Ashcroft scale scoring method, the degree of pulmonary fibrosis was evaluated according to the range of lesions and could be divided into 0 to 8 grades.\n(§1) The rats in model group were intratracheally instilled with bleomycin (4 mg/kg); after anesthesia, the rats in treatment groups were intratracheally instilled with bleomycin (4 mg/kg) and corresponding therapeutic drug (8 mg/kg) simultaneously. The remaining implementation steps were the same as the description of Example 9.\nThe lung tissue of the control group, the model group and the treatment groups of Example 15 was taken and subjected to Masson staining and scoring. The specific implementation steps were the same as the description of Example 13."}, "[2]": {"tested_on": "rat with pulmonary fibrosis induced by bleomycin", "assay": "Rat weight, intratracheal instillation (Examples 15-16)", "details": "Day 14/Day 0, 8 mg/kg peptide + 4 mg/kg bleomycin simultaneously, Mean ± SEM", "procedure": "The rats were weighed before administration, intramuscular injection of Zoletil anesthetic solution, the dose was 65 mg/kg. After the rats entered the stage III anesthesia, the experimental rats were bond in the incline lateral decubitus. A size 12 gavage needle was inserted into rat trachea through oral cavity along the glottis to infuse the drug. The experimental animals were fed normally from the 1st day to the 14th day after intratracheal administration, and were weighed regularly every day without restriction of feed or drinking water.\nas §1\nThe model and the administration route were referred to Example 15. The experimental rats in the control group, the model group, and the treatment groups described in Example 15 were weighted every day from the 1st day until the 14th day. When weighing, the “unstable weighing” of the electronic balance was selected, and an appropriate number of weighing and a degree of tolerable instability during the reading phase were set according to the instructions to weigh and record the readings. […]"}, "[3]": {"tested_on": "rat with pulmonary fibrosis induced by bleomycin", "assay": "Hydroxyproline content in rat lung tissue, acid hydrolysis, intravenous injection (Example 25)", "details": "intravenous injection 10 mg/kg once a day, 4th to 13th day after bleomycin 4 mg/kg; Mean ± SEM", "procedure": "(§2) The rats were weighed before administration, intramuscularly injected with 65 mg/kg Zoletil anesthetic solution. After the rats entered the stage III anesthesia, the experimental rats were fixated in the lateral decubitus. Gavage needle size 12 was inserted into rat trachea through oral cavity along the glottis to instill sterile saline or bleomycin (4 mg/kg) (Day 0). After the anesthesia, the rats in control group were intratracheally instilled with an equal volume of sterile saline, and the rats in model group and treatment groups were intratracheally instilled with bleomycin (4 mg/kg). On the 4th day, the sterile saline or peptide drug was injected through the tail vein once a day until the 13th day. The rats were sacrificed on the 14th day for subsequent experiments. The rats in the control group were received no drug treatment; the rats in the model group were injected with sterile saline through the tail vein; the rats in the treatment groups were injected with corresponding peptide drug (10 mg/kg) through the tail vein. […]\nThe lung tissue in the model group, the control group and the treatment groups of Example 20 was taken, and the hydroxyproline content in lung tissue was detected using BioVision Hydroxyproline Acid Hydrolysis Assay Kit (Cat. No. K555-100), the result is shown in the HYP values in Table 4."}, "[4]": {"tested_on": "rat with pulmonary fibrosis induced by bleomycin", "assay": "Rat body weight, intravenous injection (Examples 20-21)", "details": "Day 14/Day 0; intravenous injection 10 mg/kg once a day, 4th to 13th day after bleomycin 4 mg/kg; Mean ± SEM", "from_the_text": "The model and the administration route were referred to Example 15. The experimental rats in the control group, the model group, and the treatment groups described in Example 15 were weighted every day from the 1st day until the 14th day. When weighing, the “unstable weighing” of the electronic balance was selected, and an appropriate number of weighing and a degree of tolerable instability during the reading phase were set according to the instructions to weigh and record the readings. The result is shown in the weight ratios in FIG. 2 (Day 14/Day 0).\nas §2, with “experiments.” for “experiments. The rats in the control group were received no drug treatment; the rats in the model group were injected with sterile saline through the tail vein; the rats in the treatment groups were injected with corresponding peptide drug (10 mg/kg) through the tail vein.”"}}, "note": "Ends that are not written are not given here."}
{"sequence": "YRVRFLAKENVTQDAEDN [N1]", "values": [{"measurement": "Masson Score", "setting": "[1]", "result": "3.93 ± 0.09"}, {"measurement": "Weight Ratio", "setting": "[2]", "result": "1.05 ± 0.02"}, {"measurement": "HYP (hydroxyproline content in lung tissue)", "setting": "[3]", "result": "34.09 ± 5.01"}, {"measurement": "Weight Ratio", "setting": "[4]", "result": "1.05 ± 0.02"}]}
